# Results: US20220331348A1, “METHOD OF PREPARING PENTACYCLIC TRITERPENOID SAPONINS AND DRUG COMPOSITION” (CHINA PHARMACEUTICAL UNIVERSITY, priority 2019, published 2022)
# Marks after values point to notes of the source that are not given here.
# What was measured:
# [1] = tested on: AMPK in Huh-7 cells; assay: Activation activity on AMPK in Huh-7 cells (Western Blot); assay type: cell-based; settings: 10 μM, 12 h, Western Blot gray scale, relative to DMSO = 1
# Procedure: The activation activity of a compound on AMPK in Huh-7 cells was detected by using Western Blot.
# Cell culture conditions: Huh-7 cells were cultured in an incubator with 5% CO2 at 37° C. in DMEM complete medium (containing 10% fetal calf serum and 1% streptomycin/penicillin).
# Antibody: anti-AMPK (CST, 2532S); anti-pAMPK (CST, 2535S).
# Western Blot experiment: the influence of the compound on phosphorylation level of the AMPK in the Huh-7 cells was detected: cells with more than 90% cells alive were taken for the experiment. In a 12-well plate, the Huh-7 cells were plated in the plate at 250000 cells per well, the plate was placed in the incubator with 5% CO2 at 37° C. for culture, an original culture medium was discarded after 12 h, a complete medium containing the pentacyclic triterpenoid saponin was added, a final concentration of subject pentacyclic triterpenoid saponin was set to be 10 μM, and an administration time was set to be 12 h. A positive control compound employs AICAR (100 μM), metformin (70 μM) or A-769662 (100 μM). Then proteins were extracted for Western Blot detection.
# Experimental result: a Western Blot experimental result was subjected to gray scale scanning, a p-AMPK/AMPK ratio of negative control DMSO was defined as 1, and a p-AMPK/AMPK ratio of the subject compound was a relative ratio of a negative control group. The larger the numerical value was, the stronger the activation activity of the AMPK of the compound was.
# [2] = tested on: high fat diet induced NASH model rats; assay: High fat diet (HFD) induced NASH rat model; assay type: in vivo; parameters: MDA: unit not given here
# Procedure: Animal: 32 SD male rats of SPF level with 6 weeks old and 220 g were purchased from Beijing Vital River Laboratory Animal Technology Co., Ltd. All the animals maintained 12 h alternative circadian rhythm with free access to food.
# Reagent: the ginsenoside Ro (I) was purchased from Shanghai Boka Chemistry Technology Co., Ltd; obeticholic acid (OCA) was purchased from Jiangsu Vcare PharmaTech Co., Ltd; high fat diets were purchased from Research Diets (D12492, 60 kcal %); and standard feeds were purchased from Research Diets (D12450B, 10 kcal %).
# The rats were randomly divided into 4 groups based on the weight: a control group (CHOW), a high fat diet model group (HFD), a positive drug obeticholic acid (OCA, 5 mg/Kg) group (HFD+OCA) and a ginsenoside Ro (Ro for short, 5 mg/kg) group (HFD+Ro). The control group was fed with the standard feeds and drank water normally; and the rest groups were fed with the high fat diets, drank 10% aqueous sucrose solution for replacing the water and were modeled for 20 weeks.
# After 20 weeks, the control group and the high fat diet model group were given with a CMC-Na solution with the volume fraction of 0.5% intragastrically every day, the HFD+OCA group was given with the obeticholic acid (5 mg/Kg) intragastrically every day, and the HFD+Ro was given with the ginsenoside Ro (5 mg/Kg) intragastrically every day. Administration was conducted for 8 weeks, during which, the control group was given with the standard feeds and drank the water normally, and the rest three groups were given with the high fat diets and drank 10% aqueous sucrose solution. The rats in each group were weighed every day, weights, hairs, feces and activity conditions were carefully observed and recorded.
# The rats were deprived of food but not water for 12 h in advance; and the next morning, blood was taken from eye sockets, the rats were sacrificed, and livers were harvested. Right liver lobule tissues were fixed with 4% paraformaldehyde for HE stained slicing. A part of liver tissues were divided into 3 parts, which were snap-frozen in liquid nitrogen for subsequent detection of other indexes.
# Whole blood was left to still standing for 2 h at room temperature, centrifugation was conducted for 15 min at 3000 rpm, and a serum was collected. 100 Mg of liver tissues were taken and homogenized with 0.9 mL of precooled normal saline, a homogenate was centrifuged for 15 min at 4° C. and 3000 rpm, and a supernatant was taken. Both of the serum and the supernatant were sent to Pathologic Department of Hospital of Integrated Traditional Chinese and Western Medicine in Jiangsu Province for determination of levels of triglyceride (TG), total cholesterol (TC), low density lipoprotein cholesterin (LDL-c) and high density lipoprotein cholesterol (HDL-c) in the serum and levels of the TG and the TC in the supernatant of the homogenate of the liver tissues with the full-automatic biochemical analyzer.
# Pretreated tissues were sent to Google Biotechnology Co., Ltd for preparing HE stained slices and oil red stained slices.
# Liver tissues preserved at −80° C. were put in the liquid nitrogen, about 10 mg of the liver tissues were quickly dissected out, 500 μL of precooled tissue lysate was added, and the tissues were homogenized with a homogenizer and then left to lyse on ice for 30 min; and centrifugation was conducted for 15min at 4° C. and 12000 rpm, […] of a supernatant was sucked to a clean EP tube, […] of the supernatant was taken for BCA protein quantification, […] of 5*loading buffer was added in the rest protein supernatant for denaturing by boiling, SDS-PAGE electrophoresis was conducted subsequently, the proteins were transferred onto a PVDF membrane, then incubation and elution of a relevant antibody were conducted, and finally, a chemiluminescence apparatus was employed for imaging analysis.
# [3] = tested on: human ADPKD cyst lining epithelial cell lines WT9-12; assay: Proliferation of polycystic kidney epithelial cells (CCK-8 method); assay type: cell-based; settings: polycystic kidney epithelial cells; 10 μM, 48 h; CCK-8; n = 6
# Text: Cell and reagent: complete media for human ADPKD cyst lining epithelial cell lines WT9-12 and DMEM were purchased from ATCC Company; fetal calf serums were purchased from Gibco Company; Cell Counting Kit-8 was purchased from DOJINDO Company; Click-iT® EdU Imaging Kits were purchased from Invitrogen™ Thermo Fisher Scientific Company; Caspase -3/CPP32 Colorimetric Assay Kit was purchased from BioVision Company; Annexin V/PI double-staining flow type cell apoptosis detection kits were purchased from Bender Company; and anti-Phospho-(AMPKa, mTOR, p70S6K, 4E-BP1) antibodies were purchased from Cell Signaling Technology Company.
# The influence of 2-DG on proliferation of the polycystic kidney epithelial cells was detected with a CCK-8 method: a DMEM complete medium containing 10% fetal calf serum (FBS) was prepared. The polycystic kidney epithelial cells were cultured in an incubator with 5% CO2 at 37° C. after being recovered, a solution was replaced every other day, the polycystic kidney epithelial cells were passaged every 2-3 days, and the cells were in a growing state of adhering to the wall. After trypsin enzyme digestion, cells were resuspended by using a complete medium, the concentration of a polycystic kidney epithelial cell suspension was regulated to be 3×10^7/L, the polycystic kidney epithelial cell suspension was inoculated to 96-well plate by […] per well for culture for 24 h, and the suspension was replaced by a culture medium containing 0.1% FBS for synchronization for 24 h.
# [4] = HFD NASH rats, summary in words
# [5] = HFD induced NASH model rats, 5 mg/Kg, n = 8
# [6] = serum of HFD induced NASH model rats, 5 mg/Kg, n = 8
substance,measurement,setting,value
madecassoside [(VI)],pAMPK/AMPK ratio,[1],2.27
same,inflammatory responses of the livers,[2]; [4],inhibit
same,"lipid accumulation, caused by the high fat diets, of the rat livers",[2]; [4],effectively lower
same,Liver TC,[2]; [5],0.472 ± 0.201** mmoL/gprot
same,Liver TG,[2]; [5],1.240 ± 0.213** mmoL/gprot
same,Serum LDL-c,[2]; [5],47.25 ± 7.45* mg/dL
same,Serum TG,[2]; [5],18.83 ± 4.11** mg/dL
same,ALT,[2]; [6],65.86 ± 10.43*** U/L
same,AST,[2]; [6],127.21 ± 9.34* U/L
same,MDA,[2]; [6],11.59 ± 2.88*
same,Inhibition rate (%),[3],76.3 ± 2.3 %
